Legend:
PRC2 enzyme = PRC2 enzyme (Homo sapiens (Human), UniProt O75530); assay: PRC2 enzyme activity, TR-FRET method; format: biochemical
Summary of the method: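 Enzyme preincubated with compound 30 min at room temperature; reaction started with biotin-labeled histone H3 peptide and SAM, run 4 h at room temperature.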

[1] = Liver microsomal stability (human); format: in vitro ADME
Summary of the method: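 Human, mouse and rat liver microsomes were incubated with NADPH and MgCl2 in 0.1 M Tris pH 7.4, with compound at a 0.2 μM working solution. Remaining compound was quantified by LC/MS over the incubation time. The slope of log remaining versus time gave Clint, which was scaled to predicted Cl, Clhep and % MF.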

[2] = Oral pharmacokinetics in rats; format: in vivo; settings: male, SD, plasma, rat, intragastric, 3 mg/kg
Experimental: 1. Healthy male SD rats were used as test animals, EED226, […]-07 (3 mg/kg) were administered intragastrically, and the drug concentrations in rat plasma were determined by LC/MS/MS method at different time points after drug administration. The pharmacokinetic behavior of the compounds of the present invention in rats was studied, and the pharmacokinetic properties were evaluated. 2. The test animals were healthy adult male SD rats, with 3 rats in each group, purchased from Shanghai Xipuer-Bikai Laboratory Animal Limited Company. 3. Drug preparation: Compounds EED226, […] were dissolved in DMSO/0.5% HPMC (5/95, v/v) for preparation. The compound SL-ZYE-07 was dissolved in 0.5% HPMC (containing 0.5% Tween 80), vortexed, and sonicated to disperse the solid matter uniformly to obtain a pale white suspension. 4, Operation: EED226, […]-07 were administered to rats by intragastric administration (3 mg/kg), 45 μL of blood was taken through the femoral vein at 0.25, 0.5, 1, 2, 4, 8, 24 hour after administration, and centrifuged in a heparinized centrifuge tube for 5 min, and the plasma samples were separated for analysis. The contents of test compounds in rat plasma after intragastric administration of different compounds were determined by Liquid chromatography-mass spectrometry (LC-MS/MS).

Karpas-422 cells = assay: Growth inhibition of Karpas-422 cells in a long term (11 days), CellTiter-Glo; format: cell-based, Human; settings: Homo sapiens, 264 h; Karpas-422, 11 days; read-out: Karpas-422 (11 days) IC50
Pfeiffer cells = assay: Growth inhibition of Pfeiffer cells in a long term (14 days), CellTiter-Glo; format: cell-based, Human; settings: Homo sapiens, 336 h, 14 days, read-out: Pfeiffer (14 days) IC50
Summary of the method: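 Pfeiffer DLBCL cells in RPMI 1640 with 10% FBS were treated for 14 days with a 9-point, three-fold compound series (final 0.003-20 μM or 0.3-2000 nM, 0.2% DMSO). Medium and compound were refreshed with cell dilution on days 4, 7 and 11. Viability was read by CellTiter-Glo luminescence, and IC50 values were calculated.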

Sequence of PRC2 enzyme (O75530 whole entry): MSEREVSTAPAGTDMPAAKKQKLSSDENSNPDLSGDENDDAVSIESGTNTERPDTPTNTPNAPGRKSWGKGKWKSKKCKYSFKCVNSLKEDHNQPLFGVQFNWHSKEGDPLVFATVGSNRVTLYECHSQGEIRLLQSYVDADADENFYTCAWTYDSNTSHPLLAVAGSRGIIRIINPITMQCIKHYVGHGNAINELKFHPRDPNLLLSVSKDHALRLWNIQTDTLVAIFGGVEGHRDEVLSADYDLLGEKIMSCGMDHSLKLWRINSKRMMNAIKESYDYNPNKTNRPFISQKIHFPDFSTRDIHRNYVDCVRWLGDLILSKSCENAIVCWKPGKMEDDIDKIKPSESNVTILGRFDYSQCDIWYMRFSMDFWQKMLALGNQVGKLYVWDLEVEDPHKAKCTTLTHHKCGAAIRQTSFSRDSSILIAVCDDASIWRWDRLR
Sequence of PRC2 enzyme (Q15910 whole entry partner): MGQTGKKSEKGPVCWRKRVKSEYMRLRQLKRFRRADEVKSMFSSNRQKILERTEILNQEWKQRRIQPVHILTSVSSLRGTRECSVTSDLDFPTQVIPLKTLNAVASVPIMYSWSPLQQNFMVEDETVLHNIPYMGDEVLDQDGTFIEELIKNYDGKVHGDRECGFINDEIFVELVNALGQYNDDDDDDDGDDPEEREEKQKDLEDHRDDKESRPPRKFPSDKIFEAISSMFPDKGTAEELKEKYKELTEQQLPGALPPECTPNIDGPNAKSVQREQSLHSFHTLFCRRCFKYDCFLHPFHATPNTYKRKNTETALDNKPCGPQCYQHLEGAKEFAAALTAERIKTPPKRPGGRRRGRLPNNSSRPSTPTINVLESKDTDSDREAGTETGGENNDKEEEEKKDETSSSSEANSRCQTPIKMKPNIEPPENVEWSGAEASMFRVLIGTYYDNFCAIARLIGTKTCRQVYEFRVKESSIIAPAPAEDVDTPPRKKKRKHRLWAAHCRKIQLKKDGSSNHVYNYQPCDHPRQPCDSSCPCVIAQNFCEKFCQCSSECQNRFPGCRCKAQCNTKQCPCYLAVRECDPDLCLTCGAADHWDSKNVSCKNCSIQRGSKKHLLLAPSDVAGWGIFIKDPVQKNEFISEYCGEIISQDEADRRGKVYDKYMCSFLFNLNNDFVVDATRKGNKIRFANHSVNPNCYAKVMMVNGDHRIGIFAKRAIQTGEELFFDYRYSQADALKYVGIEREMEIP
Sequence of PRC2 enzyme (Q15022 whole entry partner): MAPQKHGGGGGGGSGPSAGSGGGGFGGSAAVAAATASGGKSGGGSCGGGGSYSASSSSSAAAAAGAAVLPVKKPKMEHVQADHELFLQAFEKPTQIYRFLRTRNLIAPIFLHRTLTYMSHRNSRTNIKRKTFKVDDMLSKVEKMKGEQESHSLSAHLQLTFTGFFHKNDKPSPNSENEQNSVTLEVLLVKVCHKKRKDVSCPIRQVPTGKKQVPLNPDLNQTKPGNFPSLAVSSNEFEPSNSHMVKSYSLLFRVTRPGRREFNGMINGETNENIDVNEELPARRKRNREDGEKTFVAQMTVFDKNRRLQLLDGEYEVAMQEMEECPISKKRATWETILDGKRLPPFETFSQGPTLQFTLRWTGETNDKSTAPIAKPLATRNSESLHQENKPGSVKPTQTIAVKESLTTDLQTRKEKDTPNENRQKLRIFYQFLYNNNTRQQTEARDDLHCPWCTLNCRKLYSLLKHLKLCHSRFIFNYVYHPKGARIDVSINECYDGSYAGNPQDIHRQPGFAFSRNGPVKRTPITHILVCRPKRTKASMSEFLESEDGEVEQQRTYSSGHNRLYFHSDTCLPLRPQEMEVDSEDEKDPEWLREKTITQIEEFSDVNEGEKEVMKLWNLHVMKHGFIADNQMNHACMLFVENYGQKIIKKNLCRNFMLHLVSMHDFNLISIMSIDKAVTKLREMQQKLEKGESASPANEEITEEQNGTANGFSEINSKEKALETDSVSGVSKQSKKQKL

In the case of `CS(=O)(=O)N1CC=C(c2cnc(NCc3c(F)ccc4c3CCO4)n3cnnc23)CC1` [E-Y13], the IC50 (PRC2 enzyme) is reported as 19 nM, the “Clearance rate in vivo Clint In Vivo Extpl” value ([1]; human liver microsomes) is reported as 1732 mL/min and the “Intrinsic clearance rate in vivo Clint In Vitro” value ([1]; human liver microsomes) is reported as 22.6 mL/min/gprot. For the same compound, the “Liver clearance rate Clint Hep In Vivo Extpl” value ([1]; human liver microsomes) was 804 mL/min, the half-life ([1]; human, liver microsomes, pH 7.4, human liver microsomes, read-out: Half life T-half) was 1.55 h and the bioavailability ([1]; human, liver microsomes, pH 7.4, human liver microsomes, read-out: Metabolic bioavailability MF %) was 46.4%. The AUC(0-t) [2] was 529 ± 150 ng·h/mL, the AUC(0-inf) ([2]; extrapolated to infinity, read-out: AUCINF_obs) was 539 ± 150 ng·h/mL and the MRT inf ([2]; read-out: Average residence time MRTINF_obs) was 2.06 ± 0.484 h. For the same compound, the half-life ([2]; read-out: Half life T1/2 (converted)) was 1.37 ± 0.212 h, the Cmax ([2]; read-out: Peak concentration Cmax) was 376 ± 273 ng/mL and the IC50 (Karpas-422 cells) was 13 nM. For the same compound, the IC50 (Pfeiffer cells) was 1 nM.

— patent publication US11013745B2, “Triazolopyrimidine, triazolopyridine compounds, and the composition thereof for treating PRC2-mediated diseases” (SHANGHAI INSTITUTE OF MATERIA MEDICA, CHINESE ACADEMY OF …, priority 2017, dated 2021)
